Source: the supplement of paper PMC10920090

Tests used:
MDA-MB-231 [1] = test: drug sensitivity score (DSS), cytotoxicity CellTox Green; higher = more cytotoxic; extreme values may be limits of the assay; details: 72 h
MDA-MB-231 [2] = test: drug sensitivity score (DSS), cell viability CellTiter-Glo; higher = more sensitive; extreme values may be limits of the assay; details: 72 h
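Wherever drug sensitivity score (DSS), cytotoxicity CellTox Green is given: DSS summarises each dose–response curve by combining IC50, EC50, maximal inhibition and efficacy across drug concentrations.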

Row | SMILES | drug sensitivity score (MDA-MB-231 [1]; shRNA: shPPFIA1_1) [DSS] | drug sensitivity score (MDA-MB-231 [1]; shRNA: shScramble) [DSS] | drug sensitivity score (MDA-MB-231 [2]; shRNA: shPPFIA1_1) [DSS] | drug sensitivity score (MDA-MB-231 [2]; shRNA: shScramble) [DSS]
1 | COc1cccc2c1C(=O)c1c(O)c3c(c(O)c1C2=O)C[C@@](O)(/C(CO)=N/NC(=O)CCCCCN1C(=O)C=CC1=O)C[C@@H]3O[C@H]1C[C@H](N)[C@H](O)[C@H](C)O1 [Aldoxorubicin] | 0 | 0 | 1.2 | 7.3
2 | COc1cc2nccc(Oc3ccc(NC(=O)Nc4cc(C)on4)c(Cl)c3)c2cc1OC [Tivozanib] | 3.3 | 0 | 0 | 1.9
3 | N[C@@H]1CCCN(c2c(/C=C3\SC(=O)NC3=O)cccc2-c2ccccc2)C1 [AZD1208] | 0 | 0 | 0 | 0
4 | Cc1cc(-c2nc(-c3ccc(OC(F)(F)F)cc3)no2)nn1Cc1ccnc(N2CCN(C3CC3)CC2)c1 [BAY 87-2243] | 0 | 0 | 14.7 | 13
5 | FC(F)c1nc2ccccc2n1-c1nc(N2CCOCC2)nc(N2CCOCC2)n1 [ZSTK474] | 0 | 0 | 0.2 | 6.1
6 | CNC(=O)c1cc(COc2nnc(Nc3ccc(Cl)cc3)c3ccoc23)ccn1 [Telatinib] | 0 | 0 | 0 | 0
7 | CC(C)n1cnc2c(NCCc3ccc(O)cc3)nc(-c3csc4ccccc34)nc21 [StemRegenin 1] | 0.8 | 0.4 | 2.3 | 0.2
8 | CC(C)N(C[C@H]1O[C@@H](n2cnc3c(N)ncnc32)[C@H](O)[C@@H]1O)[C@H]1C[C@@H](CCc2nc3cc(C(C)(C)C)ccc3[nH]2)C1 [Pinometostat] | 0 | 0 | 0 | 0
9 | CC(=O)Nc1ccc(C(=O)Nc2ccccc2N)cc1 [Tacedinaline] | 0 | 0 | 0 | 0
10 | O=C(Nc1ccc(-c2ccnc(Nc3ccc(N4CCOCC4)cc3)n2)cc1)C1CCCN1 (stereo unspecified) [XL019] | 0 | 0 | 0 | 0.6
11 | CC1CCC(n2c3cnccc3c3cnc(Nc4ccc5c(n4)CCN(C(=O)CO)C5)nc32)CC1 (stereo unspecified) [AMG-925] | 0 | 0 | 0 | 0
12 | N#Cc1ccc(C(c2ccc(C#N)cc2)n2cncn2)cc1 [Letrozole] | 0 | 0 | 0 | 0
13 | COc1cc(Nc2ncc3c(n2)-c2ccc(Cl)cc2C(c2c(F)cccc2OC)=NC3)ccc1C(=O)O [Alisertib] | 0.7 | 0 | 0.8 | 0.1
14 | C=CC(=O)N1CCC[C@@H](n2nc(-c3ccc(Oc4ccccc4)cc3)c3c(N)ncnc32)C1 [Ibrutinib] | 0 | 0 | 0 | 0
15 | O=C(O)CNC(=O)c1c(O)c2ccccc2n(Cc2ccccc2)c1=O [IOX-2] | 0 | 0 | 5 | 4
16 | CC(C)c1cc(-c2n[nH]c(=O)n2-c2ccc3c(ccn3C)c2)c(O)cc1O [Ganetespib] | 1.2 | 3 | 9.9 | 11.5
17 | CCN1CCN(Cc2ccc(Nc3ncc(F)c(-c4cc(F)c5nc(C)n(C(C)C)c5c4)n3)nc2)CC1 [Abemaciclib] | 0.9 | 0 | 0.9 | 0
18 | CN1CCC(COc2cnc(-c3cccc(Cn4nc(-c5cccc(C#N)c5)ccc4=O)c3)nc2)CC1 | 0 | 0 | 0 | 0
19 | COc1cc(NS(C)(=O)=O)ccc1Nc1c2ccccc2nc2ccccc12 [Amsacrine] | 2 | 7.4 | 4.8 | 8.6
20 | COc1cc2c(NC3CCN(C(C)C)CC3)nc(C3CCCCC3)nc2cc1OCCCN1CCCC1 [UNC0638] | 7 | 6.8 | 8.3 | 6.3
21 | Cc1sc2c(c1C)C(c1ccc(Cl)cc1)=N[C@@H](CC(=O)Nc1ccc(O)cc1)c1nnc(C)n1-2 [OTX015] | 0 | 0 | 0 | 10.2
22 | O=P1(NCCCl)OCCCN1CCCl (stereo unspecified) [Ifosfamide] | 0 | 0 | 0 | 0

Row | SMILES | drug sensitivity score (MDA-MB-231 [1]; shRNA: shPPFIA1_1) [DSS] | drug sensitivity score (MDA-MB-231 [1]; shRNA: shScramble) [DSS] | drug sensitivity score (MDA-MB-231 [2]; shRNA: shPPFIA1_1) [DSS] | drug sensitivity score (MDA-MB-231 [2]; shRNA: shScramble) [DSS]
23 | Cc1cc2c(C(=O)NC[C@H](C)c3ccccc3)c(O)c(O)cc2c(O)c1-c1c(C)cc2c(C(=O)NC[C@H](C)c3ccccc3)c(O)c(O)cc2c1O [Sabutoclax] | 11.4 | 5.6 | 11.8 | 13.6
24 | O=C(Nc1cccc(Cl)c1)Nc1ncc(CCNc2ncnc3ccsc23)s1 [SNS-314] | 0 | 0 | 0 | 0
25 | Cc1cc(Nc2cc(CN3CCOCC3)c3nc(C)c(Cc4ccc(Cl)cc4F)n3n2)n[nH]1 [Gandotinib] | 2.1 | 1.7 | 1.6 | 4.4
26 | OCCn1cc(-c2cnc3nnn(Cc4ccc5ncccc5c4)c3n2)cn1 | 0 | 0 | 0.9 | 0
27 | c1ccc(Cn2c(-c3ccc(OC[C@H](C4CCNCC4)n4c(-c5ccccc5)nc5ccccc54)cc3)nc3ccccc32)cc1 [deltarasin] | 9.2 | 7.3 | 5.7 | 7.3
28 | CC(O)(CS(=O)(=O)c1ccc(F)cc1)C(=O)Nc1ccc(C#N)c(C(F)(F)F)c1 (stereo unspecified) [Bicalutamide] | 0 | 0 | 0 | 0.2
29 | S=P(N1CC1)(N1CC1)N1CC1 [Thio-TEPA] | 0 | 0 | 0.9 | 0.9
30 | c1cn2cc(-c3ccc4cn[nH]c4c3)nc(Nc3ccc(N4CCOCC4)cc3)c2n1 [Entospletinib] | 10.3 | 0 | 0.9 | 0
31 | CCS(=O)(=O)N1CCN(c2ccc(Nc3ncc(C(N)=O)c(NC4CC4)n3)cc2)CC1 [Cerdulatinib] | 0 | 0 | 0 | 2.9
32 | Cn1c(Nc2ccc(C(F)(F)F)cc2)nc2cc(Oc3ccnc(-c4ncc(C(F)(F)F)[nH]4)c3)ccc21 [RAF265] | 0 | 1.6 | 0 | 1.8
33 | CN1CC[C@@H](NC(=O)Nc2ccc(C#N)cc2)C[C@@H]1c1nc2ccccc2[nH]1 [Glasdegib] | 0 | 0 | 0 | 0
34 | C=CC[C@@H]1/C=C(\C)C[C@H](C)C[C@H](OC)[C@H]2O[C@@](O)(C(=O)C(=O)N3CCCC[C@H]3C(=O)O[C@H](/C(C)=C/[C@@H]3CC[C@@H](O)[C@H](OC)C3)[C@H](C)[C@@H](O)CC1=O)[C@H](C)C[C@@H]2OC [Tacrolimus] | 0 | 0 | 0 | 0
35 | O=C(O)c1ccc(O)c2ncccc12 [IOX-1] | 0 | 0 | 0 | 0
36 | O=C1CN2Cc3c(ccc(Cl)c3Cl)N=C2N1 [Anagrelide] | 0 | 0 | 0 | 0
37 | Cn1ncnc1[C@H]1c2n[nH]c(=O)c3cc(F)cc(c23)N[C@@H]1c1ccc(F)cc1 [Talazoparib] | 0 | 0 | 0 | 0.4
38 | N[C@@H](Cc1ccc(N(CCCl)CCCl)cc1)C(=O)O [Melphalan] | 0 | 0 | 0 | 0.4
39 | Nc1ncn([C@H]2C[C@H](O)[C@@H](CO)O2)c(=O)n1 [Decitabine] | 0 | 0 | 0.9 | 1
40 | O=C1c2c(O)ccc(O)c2C(=O)c2c(NCCNCCO)ccc(NCCNCCO)c21 [Mitoxantrone] | 0 | 0 | 0 | 3.2
41 | CNNCc1ccc(C(=O)NC(C)C)cc1 [Procarbazine] | 0 | 0 | 0 | 0
42 | C=CC(=O)Nc1cccc(Nc2nc(Nc3ccc(OCCOC)cc3)ncc2F)c1 [Spebrutinib] | 0 | 0 | 0 | 0.4
43 | Cc1ccc(-c2cc(C(F)(F)F)nn2-c2ccc(S(N)(=O)=O)cc2)cc1 [Celecoxib] | 0 | 0 | 0 | 0
44 | O=c1sn(-c2cccc3ccccc23)c(=O)n1Cc1ccccc1 [Tideglusib] | 0 | 0 | 0 | 0

Row | SMILES | drug sensitivity score (MDA-MB-231 [1]; shRNA: shPPFIA1_1) [DSS] | drug sensitivity score (MDA-MB-231 [1]; shRNA: shScramble) [DSS] | drug sensitivity score (MDA-MB-231 [2]; shRNA: shPPFIA1_1) [DSS] | drug sensitivity score (MDA-MB-231 [2]; shRNA: shScramble) [DSS]
45 | CCNC(=O)c1noc(-c2cc(C(C)C)c(O)cc2O)c1-c1ccc(CN2CCOCC2)cc1 [Luminespib] | 0 | 2 | 9.5 | 12.2
46 | C[C@H](Nc1ncnc2nc[nH]c12)c1cc2cccc(Cl)c2c(=O)n1-c1ccccc1 [Duvelisib] | 0 | 3.3 | 3 | 0
47 | Nc1cc(F)ccc1NC(=O)/C=C/c1cnn(C/C=C/c2ccccc2)c1 [RGFP966] | 3.1 | 0 | 2.6 | 0.2
48 | CNC(=O)c1cc(Oc2ccc(NC(=O)Nc3cc(C(C)(C)C)nn3-c3ccc4ncccc4c3)c(F)c2)ccn1 [Rebastinib] | 0 | 0 | 0 | 0
49 | CC(C)(C)NC(=O)[C@H]1CC[C@H]2[C@@H]3CC[C@H]4NC(=O)C=C[C@]4(C)[C@H]3CC[C@]12C [Finasteride] | 0 | 0 | 0 | 0
50 | C[C@@H](Nc1cc(F)cc(F)c1)c1cc(C(=O)N(C)C)cc2c(=O)cc(N3CCOCC3)oc12 [AZD-8186] | 0 | 0 | 0 | 1.7
51 | Oc1ncc(N(CCCl)CCCl)c(O)n1 [Uramustine] | 0 | 0 | 0 | 0
52 | COc1cc(C(=O)O)ccc1NC(=O)[C@@H]1N[C@@H](CC(C)(C)C)[C@](C#N)(c2ccc(Cl)cc2F)[C@H]1c1cccc(Cl)c1F [Idasanutlin] | 2.6 | 0.6 | 0 | 0
53 | Oc1ncnc2[nH]ncc12 [Allopurinol] | 0 | 0 | 0 | 0
54 | CC(C)c1c(C(=O)Nc2ccccc2)c(-c2ccccc2)c(-c2ccc(F)cc2)n1CC[C@@H](O)C[C@@H](O)CC(=O)O [Atorvastatin] | 2 | 0.6 | 2.5 | 7.3
55 | CCC/C=C/C=C/C(=O)O[C@H]1/C(=C/C(=O)OC)C[C@H]2C[C@H]([C@@H](C)O)OC(=O)C[C@H](O)C[C@@H]3C[C@H](OC(C)=O)C(C)(C)[C@](O)(C[C@@H]4C/C(=C/C(=O)OC)C[C@H](/C=C/C(C)(C)[C@]1(O)O2)O4)O3 [Bryostatin 1] | 0 | 0 | 17.2 | 3.3
56 | C[C@@H]1CCN(C(=O)CC#N)C[C@@H]1N(C)c1ncnc2[nH]ccc12 [Tofacitinib] | 0.9 | 0.9 | 0 | 0
57 | CNC(=O)c1cccc2cc(Oc3ccnc4cc(OCC5(N)CC5)c(OC)cc34)ccc12 [Lucitanib] | 0.3 | 1.2 | 0 | 0.7
58 | Cn1cc(-c2cnn3c(N)c(Br)c([C@@H]4CCCNC4)nc23)cn1 [MK-8776] | 0 | 0 | 0 | 2.9
59 | Cc1ccc(NC(=O)c2ccc(CN3CCN(C)CC3)cc2)cc1Nc1nccc(-c2cccnc2)n1 [Imatinib] | 1.4 | 0 | 1.5 | 0
60 | Cn1cc(C[C@@H](N)C(=O)O)c2ccccc21 [1-methyl-D-tryptophan] | 0 | 0 | 0 | 0.9
61 | CS(=O)(=O)c1ccc(-c2cnc(N)c(C(=O)Nc3ccccc3)n2)cc1 [VE-821] | 0 | 0 | 0 | 0
62 | O=C(/C=C/c1cccc(S(=O)(=O)Nc2ccccc2)c1)NO [Belinostat] | 14.9 | 8.1 | 8.7 | 10.2
63 | CN(C)Cc1c(C(=O)NCCOc2ccc(C(=O)NO)cc2)oc2ccccc12 [Abexinostat] | 16.6 | 10.4 | 3.4 | 12.2
64 | S=C(NCc1ccc2c(c1)OCO2)N1CCN(c2ncnc3c2oc2ccccc23)CC1 [Amuvatinib] | 5.5 | 0 | 0.6 | 1.8
